Experiments:
Format in all cases: binding, BALB/c mice
[1] = test system: G7 1.1; test: ELISA inhibition by singly modified Cs-derivatives, McAb G7 1.1; details: group I; McAb binds selectively to Thr^2 -Cs-BSA coating
Procedure: (§1) A second ELISA Procedure used conjugates of D-Lys^8 -Cs-BSA and Thr^2 -Cs-BSA for coating (Queeniaux et al., 1987b). An indirect detection system consisting of rabbit anti-mouse Ig followed by alkaline phosphates-conjugated goat anti-rabbit IgG was performed as previously described (Queenlaux et al., 1987b).
(§2) The binding of the 22 McAbs to these two Cs-BSA conjugates was also found to correlate well with their fine specificity patterns, as characterized with a set of 28-36 Cs derivatives. Typical ELISA curves showing McAb binding either to D-Lys^8 -Cs-BSA (panel A) or to Thr^2 -Ca-BSA (panel B) and inhibited by Cs or Cs derivatives are shown in FIGS. 8A-8B, D-Lys^8 -Cs-BSA was subsequently used for coating in the inhibition experiments, except for those McAbs binding selectively to Thr^2 -Cs-BSA (see Table 4 and FIGS. 7A-7C). An example of the binding of 26 Cs derivatives by McAbs belonging to each of the five specificity groups mentioned above is reported in Table 5. The results are expressed as the difference of IC50 (in log10) between the Cs derivatives and Cs. All Cs-derivatives used in this study were selected for having a conserved peptide ring conformation compared with CsA (as determined in NMR or X-ray diffraction).

[2] = test system: H6 1.5; test: ELISA inhibition by singly modified Cs-derivatives, McAb H6 1.5; details: group III; D-Lys^8 -Cs-BSA coating
Procedure: as §1, §2

[3] = test system: B11 1.4; test: ELISA inhibition by singly modified Cs-derivatives, McAb B11 1.4; details: group IV; D-Lys^8 -Cs-BSA coating
Procedure: as §1, §2

[4] = test system: C4 2.2; test: ELISA inhibition by singly modified Cs-derivatives, McAb C4 2.2; details: group V; McAb binds selectively to Thr^2 -Cs-BSA coating
Procedure: as §1, §2

[5] = test system: H4 1.3; test: ELISA inhibition by singly modified Cs-derivatives, McAb H4 1.3; details: group II; D-Lys^8 -Cs-BSA coating
Procedure: as §1, §2

SMILES	log10 difference in the concentrations of Cs-derivatives and unmodified Cs required to achieve 50% inhibition in ELISA, McAb G7 1.1 [1]	log10 difference in the concentrations of Cs-derivatives and unmodified Cs required to achieve 50% inhibition in ELISA, McAb H6 1.5 [2]	log10 difference in the concentrations of Cs-derivatives and unmodified Cs required to achieve 50% inhibition in ELISA, McAb B11 1.4 [3]	log10 difference in the concentrations of Cs-derivatives and unmodified Cs required to achieve 50% inhibition in ELISA, McAb C4 2.2 [4]	log10 difference in the concentrations of Cs-derivatives and unmodified Cs required to achieve 50% inhibition in ELISA, McAb H4 1.3 [5]
C/C=C/C[C@@H](C)[C@@H](O)[C@H]1C(=O)N[C@@H](C)C(=O)N(C)CC(=O)N(C)[C@@H](CC(C)C)C(=O)N[C@@H](C(C)C)C(=O)N(C)[C@@H](CC(C)C)C(=O)N[C@@H](C)C(=O)N[C@H](C)C(=O)N(C)[C@@H](CC(C)C)C(=O)N(C)[C@@H](CC(C)C)C(=O)N(C)[C@@H](C(C)C)C(=O)N1C [Abu^2 Ala]	0.2 log10	0.0 log10	0.4 log10	0.1 log10	–
C/C=C/C[C@@H](C)[C@@H](O)[C@H]1C(=O)N[C@@H](CO)C(=O)N(C)CC(=O)N(C)[C@@H](CC(C)C)C(=O)N[C@@H](C(C)C)C(=O)N(C)[C@@H](CC(C)C)C(=O)N[C@@H](C)C(=O)N[C@H](C)C(=O)N(C)[C@@H](CC(C)C)C(=O)N(C)[C@@H](CC(C)C)C(=O)N(C)[C@@H](C(C)C)C(=O)N1C [Abu^2 Ser]	< 0.0 log10	0.6 log10	0.0 log10	0.2 log10	0.9 log10
C/C=C/C[C@@H](C)[C@@H](O)[C@H]1C(=O)N[C@@H]([C@H](C)O)C(=O)N(C)CC(=O)N(C)[C@@H](CC(C)C)C(=O)N[C@@H](C(C)C)C(=O)N(C)[C@@H](CC(C)C)C(=O)N[C@@H](C)C(=O)N[C@H](C)C(=O)N(C)[C@@H](CC(C)C)C(=O)N(C)[C@@H](CC(C)C)C(=O)N(C)[C@@H](C(C)C)C(=O)N1C [Abu^2 aThr]	< 0.0 log10	1.1 log10	0.0 log10	0.3 log10	1.5 log10
C/C=C/C[C@@H](C)[C@@H](O)[C@H]1C(=O)N[C@@H](CC)C(=O)N(C)CC(=O)N(C)[C@@H](CC(C)C)C(=O)N[C@@H](C(C)C)C(=O)N(C)[C@@H](CC(C)C)C(=O)N[C@@H](CC)C(=O)N[C@H](C)C(=O)N(C)[C@@H](CC(C)C)C(=O)N(C)[C@@H](CC(C)C)C(=O)N(C)[C@@H](C(C)C)C(=O)N1C [Ala^7 Abu]	< 0.0 log10	0.0 log10	0.0 log10	< 0.0 log10	0.0 log10
C/C=C/C[C@@H](C)[C@@H](O)[C@H]1C(=O)N[C@@H](CC)C(=O)N(C)CC(=O)N(C)[C@@H](CC(C)C)C(=O)N[C@@H](C(C)C)C(=O)N(C)[C@@H](CC(C)C)C(=O)N[C@@H](C)C(=O)N[C@H](CCCCNC(=O)OC(C)(C)C)C(=O)N(C)[C@@H](CC(C)C)C(=O)N(C)[C@@H](CC(C)C)C(=O)N(C)[C@@H](C(C)C)C(=O)N1C [D-Ala^8 Boc-D-Lys]	2.0 log10	0.0 log10	0.3 log10	1.2 log10	0.6 log10
C/C=C/C[C@@H](C)[C@@H](O)[C@H]1C(=O)N[C@@H](CC)C(=O)N(C)CC(=O)N(C)[C@@H](CC(C)C)C(=O)N[C@@H](C(C)C)C(=O)N(C)[C@@H](CC(C)C)C(=O)N[C@@H](C)C(=O)N[C@H](CO)C(=O)N(C)[C@@H](CC(C)C)C(=O)N(C)[C@@H](CC(C)C)C(=O)N(C)[C@@H](C(C)C)C(=O)N1C [D-Ala^8 D-Ser]	1.3 log10	< 0.0 log10	0.1 log10	0.3 log10	0.0 log10
C/C=C/C[C@@H](C)[C@@H](O)[C@H]1C(=O)N[C@@H](CC)C(=O)N(C)CC(=O)N(C)[C@@H](CC(C)C)C(=O)N[C@@H](C(C)C)C(=O)N(C)[C@@H](CC(C)C)C(=O)N[C@@H](C)C(=O)N[C@H]([C@H](C)O)C(=O)N(C)[C@@H](CC(C)C)C(=O)N(C)[C@@H](CC(C)C)C(=O)N(C)[C@@H](C(C)C)C(=O)N1C [D-Ala^8 D-Thr]	> 2.0 log10	< 0.0 log10	0.4 log10	1.2 log10	0.0 log10
C/C=C/C[C@@H](C)[C@@H](O)[C@H]1C(=O)N[C@@H](CC)C(=O)N(C)CC(=O)N(C)[C@@H](CC(C)C)C(=O)N[C@@H](C(C)C)C(=O)N(C)[C@@H](CC(C)C)C(=O)N[C@@H](C)C(=O)N[C@H](C)C(=O)N(C)[C@@H](CC(C)C)C(=O)N(C)[C@@H](C)C(=O)N(C)[C@@H](C(C)C)C(=O)N1C [MeAla^10 MeAla]	< 0.0 log10	0.0 log10	0.1 log10	0.8 log10	0.4 log10
C/C=C/C[C@@H](C)[C@@H](O)[C@H]1C(=O)N[C@@H](CC)C(=O)N(C)CC(=O)N(C)[C@@H](CC(C)C)C(=O)N[C@@H](C(C)C)C(=O)N(C)[C@@H](CC(C)C)C(=O)N[C@@H](C)C(=O)N[C@H](C)C(=O)N(C)[C@@H](CC(C)C)C(=O)N(C)[C@@H](Cc2ccccc2)C(=O)N(C)[C@@H](C(C)C)C(=O)N1C [MeAla^10 MePhe]	< 0.0 log10	0.2 log10	1.6 log10	1.3 log10	0.5 log10
C/C=C/C[C@@H](C)[C@@H](OC(C)=O)[C@H]1C(=O)N[C@@H](CC)C(=O)N(C)CC(=O)N(C)[C@@H](CC(C)C)C(=O)N[C@@H](C(C)C)C(=O)N(C)[C@@H](CC(C)C)C(=O)N[C@@H](C)C(=O)N[C@H](C)C(=O)N(C)[C@@H](CC(C)C)C(=O)N(C)[C@@H](CC(C)C)C(=O)N(C)[C@@H](C(C)C)C(=O)N1C [MeBint^1 3'-O-acetyl]	0.1 log10	0.6 log10	0.7 log10	0.2 log10	1.1 log10

Source: patent US6177253A, “Screening methods for the identification of anti-HIV compounds employing a cyclosporine-specific monoclonal antibody that cross-reacts with HIV-1 p24” (priority 1998, dated 2001)
